According to patent US20030053967A1, “Use of 3,4-dihydroxy-mandelic acid for protecting against oxidative damage caused by ultra-violet light” (priority 2000, published 2003):

Legend:
[1] = 1,1-diphenyl-2-picrylhydrazyl test (DPPH test) for the removal of free radicals; type: biochemical; conditions: DPPH 100 μmol/l in methanol, absorption at 515 nm
Method: The activity of 3,4-dihydroxymandelic acid as free-radical scavenger was compared with that of conventional free-radical scavengers. For this purpose, the 1,1-diphenyl-2-picrylhydrazyl test (DPPH test) for the removal of free radicals was used.
1,1-Diphenyl-2-picrylhydrazyl (DPPH) was dissolved in methanol to a concentration of 100 μmol/l. A series of dilutions of 3,4-dihydroxymandelic acid, vitamin C, α-tocopherol and 2,6-di-tert-butyl-4-methylphenol were prepared in methanol. Methanol was used as the control. 2500 μl of the DPPH solution were mixed with 500 μl of each test solution and the decrease in absorption at 515 nm was read until the decrease was less than 2% per hour. The activity of the test substances as free-radical scavengers was calculated using the following equation:
Activity as free-radical scavenger (%)=100−(absorption of the test compounds)/(absorption of the control)×100.
The activity of the free-radical scavengers (%) in a series of dilutions of test compounds was used to calculate, for each test compound, the effective relative concentration EC50 (based on the starting concentration of DPPH, EC=c (test compound)/c(DPPH)) of a test compound at which 50% of the free radical DPPH had been removed.

[2] = accelerated autoxidation of lipids by air, Rancimat apparatus, soybean oil; conditions: for AOI in soybean oil at 100° C. with 0.05% test substance: soybean oil purified over alumina, AOI = IP(test)/IP(control); for AOI, soybean oil, 100° C.: single substance, c 0.025 % by wt.
Method: (§1) The test system used was the accelerated autoxidation of lipids by air with or without antioxidant using the Rancimat apparatus (Rancimat is a registered trademark of Metrohm AG, Herisau, Switzerland). […] In a control sample, only solvent was added. […] The conductivity of this aqueous solution was continuously measured and documented. The oxidation of (unsaturated) fats proceeds only very slowly for some time and then suddenly increases. The time to the increase is referred to as the induction period (IP). The following equation was used to calculate the antioxidative index (AOI): AOI=IP(with test solution/IP(control sample) The results for the experiment in soybean oil that has been purified over alumina grade N at 100° C. are shown in Table 2: The experiments were carried out as described under Example 2. […] The AOI values measured for the combinations were compared with the AOI values calculated according to the following formula: […]

[3] = accelerated autoxidation of lipids by air, Rancimat apparatus, squalene; conditions: for AOI in squalene at 80° C. with 0.005% of test substance: squalene purified over alumina, stabilized with 1 ppm α-tocopherol, 0.005% test substance; for AOI, squalene, 80° C.: single substance, c 0.0025 % by wt.
Method: as §1, with “squalene” for “soybean oil”, “N and stabilized with 1 ppm of α-tocopherol” for “N”, “80°” for “100°”, “3:” for “2:”

[4] = system: ultraviolet light-induced sebum oxidation (squalene hydroperoxide, SQOOH); assay: protective action against ultraviolet light-induced sebum oxidation on the skin of subjects; type: in vivo, human; conditions: back skin of 12 subjects, UV 320 to 400 nm, 10 joules/cm^2; for c(H2O2)/c(SQ): 2 mg/cm^2 topical (acid: 200 mg in 200 ml 1,3-butylene glycol twice daily for 2 days; tocopherol: 0.2% ethanolic, once before irradiation); for % inhibition compared with the untreated area: squalene hydroperoxide, 2 mg/cm^2 topical
Method: 200 mg of 3,4-dihydroxymandelic acid were dissolved in 200 ml of 1,3-butylene glycol (solution A). In addition, a 0.2% strength ethanolic solution of tocopherol was prepared (solution B). A dose of 2 mg/cm^2 of solution A was applied twice daily to the skin on the back of 12 subjects for 2 days in each case. Prior to the following irradiation, solution B was applied to a control area (2 mg/cm^2). The 2 treated and one untreated sites were irradiated with ultraviolet light (320 to 400 nm, 10 joules/cm^2). The test areas in each case were treated with 4 ml of ethanol for 2 min, the solutions were dried under nitrogen at room temperature and the residue was taken up in 1 ml of ethanol. The latter solutions were investigated by HPLC for their content of squalene (detection at 210 nm against standard) or squalene hydroperoxide (SQOOH, determination of the peroxide content using cytochrome C/luminol-enhanced chemiluminescence). The content of squalene peroxide was given relative to squalene in the form of picomols peroxide per fig of squalene.
The inhibition based on the untreated area was calculated using the following equation:
% inhibition=100·(cSQOOH untreated−cSQOOH, treated)/CSQOOH, untreated

Row | EC50 (effective relative concentration at which 50% of the free radical DPPH had been removed, c(test compound)/c(DPPH)) [1] [mol/mol] | Compound | AOI in soybean oil at 100° C. with 0.05% test substance [2] | AOI in squalene at 80° C. with 0.005% of test substance [3] | AOI, soybean oil, 100° C. [2] | AOI, squalene, 80° C. [3] | c(H2O2)/c(SQ) [4] [pmol/µg] | % inhibition compared with the untreated area [4] [%]
1 | 0.240 | Cc1cc(C(C)(C)C)c(O)c(C(C)(C)C)c1 [2,6-Di-tert-butyl-4-methylphenol] | 4.8 | 38 | – | – | – | –
2 | 0.062 | O=C(O)C(O)c1ccc(O)c(O)c1 (centres unmarked) [3,4-Dihydroxymandelic acid, 2-(3,4-dihydroxyphenyl)-2-hydroxyacetic acid] | 9.5 | 34 | 5.4 | 15 | 618 ± 45 | 33 ± 7
3 | 0.270 | O=C1O[C@H]([C@@H](O)CO)C(O)=C1O [Vitamin C] | 1.2 | 0.7 | – | – | – | –
4 | 0.250 | Cc1c(C)c2c(c(C)c1O)CC[C@@](C)(CCC[C@H](C)CCC[C@H](C)CCCC(C)C)O2 [α-Tocopherol] | 5.1 | 39 | 4.7 | 23 | 664 ± 19 | 28 ± 6
